Experimental data taken from PubChem BioAssay (NCI).
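Tested at 5 concentrations; 48 h exposure; 96-well plates; endpoints linearly interpolated, else capped at highest concentration. At the TGI there is no net growth.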

Key:
Assay in all cases: inhibition of tumour cell growth, NCI panel, 48 h
[1] = system: OVCAR-8 ovarian
[2] = system: SNB-19 CNS
[3] = system: XF 498 CNS
[4] = system: UO-31 renal
[5] = system: LXFL 529 NSCLC
[6] = system: EKVX NSCLC
[7] = system: HOP-92 NSCLC
[8] = system: UACC-62 melanoma

Compound	TGI [1]	TGI [2]	TGI [3]	TGI [4]	TGI [5]	TGI [6]	TGI [7]	TGI [8]
O=C(Nc1nc2ccc([N+](=O)[O-])cc2s1)C(=O)C(C1OC(=O)c2ccccc21)[N+](=O)[O-] (centres undefined)	> 100 µM	> 100 µM	> 100 µM	94.4 µM	> 100 µM	> 100 µM	82.9 µM	> 100 µM
CN(C)N=Nc1ccc(C(N)=O)cc1	> 100 µM	> 100 µM	> 100 µM	> 100 µM	> 100 µM	> 100 µM	> 100 µM	> 100 µM
O=C(O)CCC(NC(=O)c1ccc(Nc2nc3ccccc3nc2-c2cccs2)cc1)C(=O)O (centres undefined)	> 100 µM	> 100 µM	> 100 µM	> 100 µM	> 100 µM	> 100 µM	> 100 µM	> 100 µM
